Results on 19 compounds are retold here after US20240425479A1, “HALO-SUBSTITUTED AMINO AZA-HETEROARYL COMPOUNDS AS INHIBITORS OF THE HAEMATOPOIETIC PROGENITOR KINASE 1 (HPK1)” (priority 2021, published 2024).

For orientation: IC50 means the concentration at which inhibition is half-maximal.

For experiment [1], the target named is T1, Recombinant (1-346) HPK1 (h) (Homo sapiens, UniProt Q92918).
T1 construct: Recombinant (1-346) HPK1 (h) is incubated with 8 mM MOPS pH 7.0
T1 sequence (Q92918 1-346): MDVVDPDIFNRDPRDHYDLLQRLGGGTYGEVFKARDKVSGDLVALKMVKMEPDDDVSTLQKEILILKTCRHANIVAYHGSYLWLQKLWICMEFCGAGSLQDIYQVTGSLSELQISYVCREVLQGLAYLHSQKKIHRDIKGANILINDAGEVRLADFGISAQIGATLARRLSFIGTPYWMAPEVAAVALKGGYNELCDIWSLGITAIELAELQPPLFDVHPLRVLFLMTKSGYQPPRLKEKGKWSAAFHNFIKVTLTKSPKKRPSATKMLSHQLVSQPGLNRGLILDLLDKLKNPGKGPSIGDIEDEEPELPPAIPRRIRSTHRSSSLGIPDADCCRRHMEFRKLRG
Put plainly: HPK1 human STE kinase enzymatic radiometric assay. Format: biochemical. The conditions noted are these: read-out: HPK1 IC50 nM Range. The method in brief: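 Compounds in 3-fold, 9-point serial dilution; kinase (residues 1-346) phosphorylates myelin basic protein (0.33 mg/mL) using [gamma-33P]-ATP at pH 7.0 (MOPS, EDTA, Mg acetate) for 40 min, room temperature. Acid-quenched mixture filtered onto P30 mats; incorporated radioactivity read by scintillation counting.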

The target of experiment [2] is Lck (h) (Homo sapiens, UniProt P06239). Description: Lck human STE kinase enzymatic radiometric assay. The conditions noted are these: read-out: Lck IC50 nM Range. Format: biochemical. As for the experimental part:
(b) Lck Human STE Kinase Enzymatic Radiometric Assay
Lck (h) is incubated with 50 mM Tris pH 7.5, 0.1 mM EGTA, 0.1 mM Na3VO4, 250 uM KVEKIGEGTYGVVYK (Cdc2 peptide), 10 mM MgAcetate and [gamma-33P]-ATP (specific activity and concentration as required). The reaction is initiated by the addition of the Mg/ATP mix. After incubation for 40 minutes at room temperature, the reaction is stopped by the addition of phosphoric acid to a concentration of 0.5%, 10 μL of the reaction is then spotted onto a P30 filtermat and washed four times for 4 minutes in 0.425% phosphoric acid and once in methanol prior to drying and scintillation counting. For more details on the kinase assay procedures see: Gao, Y. et. al.; Biochem J., 451 (2): 313-328, 2013.

Each structure is given as a SMILES string.

Sequence of Lck (h) (P06239 whole entry): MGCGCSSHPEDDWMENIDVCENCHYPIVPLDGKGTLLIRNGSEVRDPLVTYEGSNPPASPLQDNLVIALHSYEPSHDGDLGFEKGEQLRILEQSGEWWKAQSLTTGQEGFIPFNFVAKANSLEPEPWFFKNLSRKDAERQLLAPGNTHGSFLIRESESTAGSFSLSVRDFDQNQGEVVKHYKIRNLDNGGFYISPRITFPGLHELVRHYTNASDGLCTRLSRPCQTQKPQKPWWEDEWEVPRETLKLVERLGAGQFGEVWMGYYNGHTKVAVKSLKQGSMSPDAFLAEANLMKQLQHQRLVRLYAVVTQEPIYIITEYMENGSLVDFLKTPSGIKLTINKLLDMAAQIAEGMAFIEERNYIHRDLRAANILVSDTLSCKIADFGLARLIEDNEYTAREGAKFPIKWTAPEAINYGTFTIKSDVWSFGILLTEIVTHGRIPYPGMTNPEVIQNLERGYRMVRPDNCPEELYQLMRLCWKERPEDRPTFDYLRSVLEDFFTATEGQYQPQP

As for `Cc1[nH]c(=O)c2ccc(-c3nc(-c4ccc(N5CCN(C(C)C)CC5)cc4)c(F)nc3N)cc2c1F` [Example I-71, 6-(3-amino-5-fluoro-6-(4-(4-isopropylpiperazin-1-yl)phenyl)pyrazin-2-yl)-4-fluoro-3-methylisoquinolin-1(2H)-one], the IC50 is 0.1 to 10 nM in experiment [1] and over 1000 nM in experiment [2].

As to `Cc1c[nH]c(=O)c2ccc(-c3nc(-c4ccc(N5CCN(CC6CC6)CC5)cc4)c(F)nc3N)cc12` [Example I-72, 6-(3-amino-6-(4-(4-(cyclopropylmethyl)piperazin-1-yl)phenyl)-5-fluoropyrazin-2-yl)-4-methylisoquinolin-1(2H)-one], the IC50 in experiment [1] was 0.1 to 10 nM; in experiment [2] it was over 1000 nM.

As to `CC(C1CC1)N1CCN(c2ccc(-c3nc(-c4cc(F)c5c(c4)CCNC5=O)c(N)nc3F)cc2)CC1` (single isomer, unassigned) [Example I-30, 6-(3-amino-6-(4-(4-(1-cyclopropylethyl)piperazin-1-yl)phenyl)-5-fluoropyrazin-2-yl)-8-fluoro-3,4-dihydroisoquinolin-1(2H)-one], the IC50 in experiment [1] was in the range of 0.1 to 10 nM; in experiment [2], 101 to 1000 nM.

As to `Nc1nc(F)c(-c2ccc(C3CCOCC3)c([C@@H]3CCCN3)c2)nc1-c1ccc2c(c1)CCNC2=O` [Example I-18, (S)-6-(3-amino-5-fluoro-6-(3-(pyrrolidin-2-yl)-4-(tetrahydro-2H-pyran-4-yl)phenyl)pyrazin-2-yl)-3,4-dihydroisoquinolin-1(2H)-one], the results for the 50% inhibitory concentration (IC50) in experiment [1] and in experiment [2] were 0.1 to 10 nM and over 1000 nM, respectively.

Regarding `CC(C)N1CCN(c2ccc(-c3nc(-c4ccc5c(=O)[nH]cc(Cl)c5c4)c(N)nc3F)cc2)CC1` [Example I-78, 6-(3-amino-5-fluoro-6-(4-(4-isopropylpiperazin-1-yl)phenyl)pyrazin-2-yl)-4-chloroisoquinolin-1(2H)-one], the IC50 in experiment [1] was in the range of 0.1 to 10 nM; in experiment [2], 101 to 1000 nM.

For the compound `CN(C)Cc1cc(-c2nc(-c3ccc4c(c3)C3(CC3)CNC4=O)c(N)nc2F)ccc1C1CCOCC1` [Example I-110, 6′-(3-amino-6-(3-((dimethylamino)methyl)-4-(tetrahydro-2H-pyran-4-yl)phenyl)-5-fluoropyrazin-2-yl)-2′,3′-dihydro-1′H-spiro[cyclopropane-1,4′-isoquinolin]-1′-one], the figures for the IC50 in experiment [1] and in experiment [2] were 0.1 to 10 nM and 101 to 1000 nM, respectively.

For the compound `CCN(C)Cc1cc(-c2nc(-c3ccc4c(=O)[nH]cc(F)c4c3)c(N)nc2F)ccc1C1CCOCC1` [Example I-238, 6-(3-amino-6-(3-((ethyl(methyl)amino)methyl)-4-(tetrahydro-2H-pyran-4-yl)phenyl)-5-fluoropyrazin-2-yl)-4-fluoroisoquinolin-1(2H)-one], the concentration for half-maximal inhibition (IC50) in experiment [1] was 0.1 to 10 nM; in experiment [2], over 1000 nM.

Turning to `Cc1cc2cc(-c3nc(-c4ccc(C5CCOCC5)c(CN(C)C)c4)c(F)nc3N)cc(F)c2c(=O)[nH]1` [Example I-100, 6-(3-amino-6-(3-((dimethylamino)methyl)-4-(tetrahydro-2H-pyran-4-yl)phenyl)-5-fluoropyrazin-2-yl)-8-fluoro-3-methylisoquinolin-1(2H)-one], the values for the IC50 in experiment [1] and in experiment [2] were 0.1 to 10 nM and over 1000 nM, respectively.

Consider `Nc1nc(F)c(-c2ccc(C3CCOCC3)c(CN3CCCC3)c2)nc1-c1cc2c(cc1F)C(=O)NCC2` [Example I-148, 6-(3-amino-5-fluoro-6-(3-(pyrrolidin-1-ylmethyl)-4-(tetrahydro-2H-pyran-4-yl)phenyl)pyrazin-2-yl)-7-fluoro-3,4-dihydroisoquinolin-1(2H)-one], for which the figures for the IC50 in experiment [1] and in experiment [2] were 0.1 to 10 nM and over 1000 nM, respectively.

Turning to `CNCC1Cc2cc(-c3nc(-c4ccc(N5CCOCC5)cc4)c(F)nc3N)ccc2C(=O)N1` (centres unmarked) [Example I-12, 6-(3-amino-5-fluoro-6-(4-morpholinophenyl)pyrazin-2-yl)-3-((methylamino)methyl)-3,4-dihydroisoquinolin-1(2H)-one], the IC50 in experiment [1] was 0.1 to 10 nM; in experiment [2], over 1000 nM.

`C[C@@H]1CN(c2ccc(-c3nc(-c4ccc5c(c4)CCNC5=O)c(N)nc3F)cc2CN(C)C)CCO1` [Example I-172, (R)-6-(3-amino-6-(3-((dimethylamino)methyl)-4-(2-methylmorpholino)phenyl)-5-fluoropyrazin-2-yl)-3,4-dihydroisoquinolin-1(2H)-one]: the half-inhibitory concentration (IC50) in experiment [1] is 0.1 to 10 nM; in experiment [2], over 1000 nM.

Consider `CCN(C)Cc1cc(-c2nc(-c3cc4c(cc3F)C(=O)NCC4)c(N)nc2F)ccc1C1CCOCC1` [Example I-164, 6-(3-amino-6-(3-((ethyl(methyl)amino)methyl)-4-(tetrahydro-2H-pyran-4-yl)phenyl)-5-fluoropyrazin-2-yl)-7-fluoro-3,4-dihydroisoquinolin-1(2H)-one], for which the concentration for half-maximal inhibition (IC50) was 0.1 to 10 nM in experiment [1] and over 1000 nM in experiment [2].

Take `COc1ccc(-c2nc(-c3ccc4c(=O)[nH]cc(F)c4c3)c(N)nc2F)cc1CN(C)C` [Example I-267, 6-(3-amino-6-(3-((dimethylamino)methyl)-4-methoxyphenyl)-5-fluoropyrazin-2-yl)-4-fluoroisoquinolin-1(2H)-one]: the figures for the IC50 in experiment [1] and in experiment [2] were 0.1 to 10 nM and over 1000 nM, respectively.

For `Nc1nc(F)c(-c2ccc(N3CCOCC3)cc2)nc1-c1ccc2c(c1)CCNC2=O` [Example I-17, 6-(3-amino-5-fluoro-6-(4-morpholinophenyl)pyrazin-2-yl)-3,4-dihydroisoquinolin-1(2H)-one], the IC50 in experiment [1] was 0.1 to 10 nM; in experiment [2], over 1000 nM.

Take `Nc1nc(F)c(-c2ccc(N3CCOCC3)cc2)nc1-c1cc(F)c2c(=O)[nH]ccc2c1` [Example I-36, 6-(3-amino-5-fluoro-6-(4-morpholinophenyl)pyrazin-2-yl)-8-fluoroisoquinolin-1(2H)-one]: the 50% inhibitory concentration (IC50) in experiment [1] is 0.1 to 10 nM; in experiment [2], over 1000 nM.

`CN(C)Cc1cc(-c2nc(-c3cc4c(F)c[nH]c(=O)c4cc3F)c(N)nc2F)ccc1N1CCOCC1` [Example I-142, 6-(3-amino-6-(3-((dimethylamino)methyl)-4-morpholinophenyl)-5-fluoropyrazin-2-yl)-4,7-difluoroisoquinolin-1(2H)-one]: the IC50 in experiment [1] is 0.1 to 10 nM; in experiment [2], over 1000 nM.

Take `C[C@@H]1CN(c2ccc(-c3nc(-c4ccc5c(c4)C(F)(F)CNC5=O)c(N)nc3F)cc2CN(C)C)C[C@H](C)O1` [Example I-257, 6-(3-amino-6-(3-((dimethylamino)methyl)-4-((2R,6S)-2,6-dimethylmorpholino)phenyl)-5-fluoropyrazin-2-yl)-4,4-difluoro-3,4-dihydroisoquinolin-1(2H)-one]: the IC50 is 0.1 to 10 nM in experiment [1] and over 1000 nM in experiment [2].

Consider `CC(C)N1CCN(c2ccc(-c3nc(-c4ccc5c(c4)CCNC5=O)c(N)nc3Cl)cc2)CC1` [Example I-7, 6-(3-amino-5-chloro-6-(4-(4-isopropylpiperazin-1-yl)phenyl)pyrazin-2-yl)-3,4-dihydroisoquinolin-1(2H)-one], for which the figures for the IC50 in experiment [1] and in experiment [2] were 11 to 100 nM and over 1000 nM, respectively.

As for `Cc1cc2cc(-c3nc(-c4ccc(N5CCN(C(C)C)CC5)cc4)c(F)nc3N)cc(F)c2c(=O)[nH]1` [Example I-67, 6-(3-amino-5-fluoro-6-(4-(4-isopropylpiperazin-1-yl)phenyl)pyrazin-2-yl)-8-fluoro-3-methylisoquinolin-1(2H)-one], the IC50 in experiment [1] was 0.1 to 10 nM; in experiment [2] it was over 1000 nM.
